# Data taken from patent publication US20230089715A1, “MASITINIB FOR THE TREATMENT OF A MULTIPLE SCLEROSIS PATIENT SUBPOPULATION” (AB SCIENCE, priority 2020, published 2023).
# Tested on: patients with progressive multiple sclerosis (PPMS or non-active SPMS)
# Assay: Study AB07002: randomized, double-blind, placebo-controlled phase 3 study, overall EDSS change from baseline
# Type: in vivo, human
# Parameters: key to LSM EDSS, MAS (overall EDSS change from baseline): LS mean EDSS change from baseline; positive value = worsening
# Settings: 4.5 mg/kg/day oral; for ΔEDSS (between group difference, treatment-effect vs placebo) / LSM EDSS, MAS (overall EDSS change from baseline) / R % (relative difference in ΔEDSS with respect to full analysis dataset): 96 weeks; for treatment-effect with respect to placebo (EDSS): non-active SPMS
# Description: An international, multicenter, randomized, double-blind, placebo-controlled phase 3 study was conducted with the objective to evaluate oral masitinib at a dose of 4.5 mg/kg/day as a treatment for progressive multiple sclerosis (progressive MS), as defined hereinabove. […] Eligible patients were treated for 96 weeks with masitinib at a dose of 4.5 mg/kg/day (mg per kilo body weight per day) or with placebo. Primary endpoint was overall EDSS change from baseline using a repeated analysis of covariance model (i.e., ANCOVA GEE model on all measurements from week 12 (W12) to week 96 (W96)). Results are expressed as least-squares means difference, illustrating the progression of EDSS score, that is to say the change over time in the EDSS score or in other words the difference between the EDSS score at baseline and the EDSS score after treatment with masitinib or with placebo (a positive value indicates a worsening of the patient). Treatment-effect is reported as between-group difference (ΔLSM, negative value indicates a beneficial effect of treatment with masitinib as compared to treatment with placebo). […] Patients suffering from a disease other than MS that would better explain their neurological clinical signs and symptoms and/or lesions observed with magnetic resonance imaging (“MRI lesions”) were excluded. Subpopulation analyses of primary endpoint data from study AB07002 assessed the impact of the clinical markers ‘time from onset’ with respect to baseline (i.e., date of treatment initiation), derived from the estimated date of first clinical MS symptom(s), or ‘time from diagnosis’ with respect to baseline (i.e., date of treatment initiation), on masitinib efficacy in patients with progressive MS (see Example 3). ‘Time from onset’ is derived from the date (year/month/day, year/month, or year) of first clinical symptom(s) with duration calculated from date of treatment initiation. The date of first symptom(s) is typically determined retrospectively from medical history, for example from medical records and patient/caregiver historical recall of MS related symptoms following a clinically definite diagnosis. Imputation of missing data can be handled using various methods, one example of which is the following approach: if the information regarding day is missing, the day is considered to be the last day of the month; if the day and month are missing, the day is considered to be the last day of June. ‘Time from diagnosis’ of progressive MS, is ideally based on a clinically definite diagnosis of progressive MS as determined by a MS specialist neurologist. In practice it is derived from the date (year/month/day, year/month, or year) of first clinically definite diagnosis of progressive MS, i.e., PPMS or non-active SPMS, with duration calculated from date of treatment initiation. At the time of MS diagnosis, a provisional disease course should be specified (relapsing-remitting, primary progressive, or secondary progressive) and whether the course is active or not (non-active) and progressive or not based on the previous year's history. The phenotype should be periodically re-evaluated based on accumulated information. Comparison of subpopulation analyses with respect to the corresponding full analysis dataset (see Table 4) is reported as relative difference in ΔEDSS (R %). A large positive R % value indicates a subpopulation that receives greater benefit from masitinib treatment, while a negative R % value indicates a diminished treatment-effect or lack of discernable treatment-effect in the subpopulation.
# [1] = nSPMS, T(diag) > 2 Y and T(onset) > 5 Y
smiles,measurement,setting,value
"Cc1ccc(NC(=O)c2ccc(CN3CCN(C)CC3)cc2)cc1Nc1nc(-c2cccnc2)cs1 [masitinib, 4-(4-methylpiperazin-1-ylmethyl)-N-[4-methyl-3-(4-pyridin-3ylthiazol-2-ylamino)phenyl]benzamide]","ΔEDSS (between group difference, treatment-effect vs placebo)","Progressive MS, T(diag) ≤ 1 Y",0.261
same,"LSM EDSS, MAS (overall EDSS change from baseline)","Progressive MS, T(diag) ≤ 2 Y",0.163
same,"LSM EDSS, MAS (overall EDSS change from baseline)","Progressive MS, T(diag) ≤ 3 Y",0.056
same,"ΔEDSS (between group difference, treatment-effect vs placebo)","Progressive MS, T(diag) ≤ 3 Y",0.053
same,"LSM EDSS, MAS (overall EDSS change from baseline)","Progressive MS, T(diag) ≤ 4 Y",0.075
same,"ΔEDSS (between group difference, treatment-effect vs placebo)","Progressive MS, T(diag) ≤ 4 Y",−0.028
same,"LSM EDSS, MAS (overall EDSS change from baseline)","Progressive MS, T(onset) > 1 Y",0.012
same,R % (relative difference in ΔEDSS with respect to full analysis dataset),"Progressive MS, T(onset) > 1 Y",−5%
same,"ΔEDSS (between group difference, treatment-effect vs placebo)","Progressive MS, T(onset) > 1 Y",−0.094
same,"LSM EDSS, MAS (overall EDSS change from baseline)","Progressive MS, T(onset) > 2 Y",0.004
same,R % (relative difference in ΔEDSS with respect to full analysis dataset),"Progressive MS, T(onset) > 2 Y",1%
same,"ΔEDSS (between group difference, treatment-effect vs placebo)","Progressive MS, T(onset) > 2 Y",−0.100
same,"LSM EDSS, MAS (overall EDSS change from baseline)","Progressive MS, T(onset) > 3 Y",−0.010
same,R % (relative difference in ΔEDSS with respect to full analysis dataset),"Progressive MS, T(onset) > 3 Y",20%
same,"ΔEDSS (between group difference, treatment-effect vs placebo)","Progressive MS, T(onset) > 3 Y",−0.119
same,"LSM EDSS, MAS (overall EDSS change from baseline)","Progressive MS, T(onset) > 4 Y",−0.027
same,R % (relative difference in ΔEDSS with respect to full analysis dataset),"Progressive MS, T(onset) > 4 Y",29%
same,"ΔEDSS (between group difference, treatment-effect vs placebo)","Progressive MS, T(onset) > 4 Y",−0.128
same,"LSM EDSS, MAS (overall EDSS change from baseline)","Progressive MS, T(onset) > 5 Y",−0.031
same,"ΔEDSS (between group difference, treatment-effect vs placebo)","Progressive MS, T(onset) > 5 Y",−0.156
same,R % (relative difference in ΔEDSS with respect to full analysis dataset),"Progressive MS, T(onset) > 5 Y, 4.5 mg/kg/day",58%
same,"LSM EDSS, MAS (overall EDSS change from baseline)","Progressive MS, T(onset) ≤ 3 Y",0.106
same,"ΔEDSS (between group difference, treatment-effect vs placebo)","Progressive MS, T(onset) ≤ 3 Y",0.346
same,"LSM EDSS, MAS (overall EDSS change from baseline)","Progressive MS, T(onset) ≤ 4 Y",−0.000
same,"ΔEDSS (between group difference, treatment-effect vs placebo)","Progressive MS, T(onset) ≤ 4 Y",0.146
same,"LSM EDSS, MAS (overall EDSS change from baseline)","Progressive MS, T(onset) ≤ 5 Y",0.259
same,"LSM EDSS, MAS (overall EDSS change from baseline)","Progressive MS, complement T(diag) ≤ 2 Y or T(onset) ≤ 5 Y",0.173
same,"LSM EDSS, MAS (overall EDSS change from baseline)","Progressive MS, full analysis dataset",0.008
same,"ΔEDSS (between group difference, treatment-effect vs placebo)","Progressive MS, full analysis dataset, 4.5 mg/kg/day",−0.099
same,"ΔEDSS (between group difference, treatment-effect vs placebo)","Progressive MS, full analysis dataset, listed as Masitinib, 4.5 mg/kg/day",significant slowing of EDSS progression
same,"LSM EDSS, MAS (overall EDSS change from baseline)","nSPMS, T(diag) > 1 Y",−0.039
same,R % (relative difference in ΔEDSS with respect to full analysis dataset),"nSPMS, T(diag) > 1 Y",6%
same,"ΔEDSS (between group difference, treatment-effect vs placebo)","nSPMS, T(diag) > 1 Y",−0.101
same,"LSM EDSS, MAS (overall EDSS change from baseline)",[1],−0.051
same,"ΔEDSS (between group difference, treatment-effect vs placebo)",[1],−0.118
same,R % (relative difference in ΔEDSS with respect to full analysis dataset),"nSPMS, T(diag) > 2 Y and T(onset) > 5 Y, 4.5 mg/kg/day",24%
same,"LSM EDSS, MAS (overall EDSS change from baseline)","nSPMS, T(diag) > 2 Y",−0.039
same,R % (relative difference in ΔEDSS with respect to full analysis dataset),"nSPMS, T(diag) > 2 Y",7%
same,"LSM EDSS, MAS (overall EDSS change from baseline)","nSPMS, T(diag) > 3 Y",−0.045
same,R % (relative difference in ΔEDSS with respect to full analysis dataset),"nSPMS, T(diag) > 3 Y",13%
same,"LSM EDSS, MAS (overall EDSS change from baseline)","nSPMS, T(diag) > 4 Y",−0.050
same,R % (relative difference in ΔEDSS with respect to full analysis dataset),"nSPMS, T(diag) > 4 Y",29%
same,"ΔEDSS (between group difference, treatment-effect vs placebo)","nSPMS, T(diag) > 4 Y",−0.123
same,"LSM EDSS, MAS (overall EDSS change from baseline)","nSPMS, T(diag) ≤ 4 Y",0.036
same,"ΔEDSS (between group difference, treatment-effect vs placebo)","nSPMS, T(diag) ≤ 4 Y",−0.004
same,"LSM EDSS, MAS (overall EDSS change from baseline)","nSPMS, T(onset) > 1 Y",−0.035
same,R % (relative difference in ΔEDSS with respect to full analysis dataset),"nSPMS, T(onset) > 1 Y",0%
same,"ΔEDSS (between group difference, treatment-effect vs placebo)","nSPMS, T(onset) > 1 Y",−0.095
same,"LSM EDSS, MAS (overall EDSS change from baseline)","nSPMS, T(onset) > 2 Y",−0.035
same,R % (relative difference in ΔEDSS with respect to full analysis dataset),"nSPMS, T(onset) > 2 Y",0%
same,"ΔEDSS (between group difference, treatment-effect vs placebo)","nSPMS, T(onset) > 2 Y",−0.095
same,"LSM EDSS, MAS (overall EDSS change from baseline)","nSPMS, T(onset) > 3 Y",−0.037
same,R % (relative difference in ΔEDSS with respect to full analysis dataset),"nSPMS, T(onset) > 3 Y",7%
same,"ΔEDSS (between group difference, treatment-effect vs placebo)","nSPMS, T(onset) > 3 Y",−0.102
same,"LSM EDSS, MAS (overall EDSS change from baseline)","nSPMS, T(onset) > 4 Y",−0.040
same,R % (relative difference in ΔEDSS with respect to full analysis dataset),"nSPMS, T(onset) > 4 Y",16%
same,"ΔEDSS (between group difference, treatment-effect vs placebo)","nSPMS, T(onset) > 4 Y",−0.110
same,"LSM EDSS, MAS (overall EDSS change from baseline)","nSPMS, T(onset) > 5 Y",−0.050
same,R % (relative difference in ΔEDSS with respect to full analysis dataset),"nSPMS, T(onset) > 5 Y",23%
same,"LSM EDSS, MAS (overall EDSS change from baseline)","nSPMS, full analysis dataset",−0.035
same,"ΔEDSS (between group difference, treatment-effect vs placebo)","nSPMS, full analysis dataset, 4.5 mg/kg/day",−0.095
same,"ΔEDSS (between group difference, treatment-effect vs placebo)","nSPMS, full analysis dataset, listed as Masitinib, 4.5 mg/kg/day",significant slowing of EDSS progression
same,treatment-effect with respect to placebo (EDSS),time from diagnosis to treatment initiation of no more than 2 year,no discernable treatment-effect
same,treatment-effect with respect to placebo (EDSS),time from onset to treatment initiation of no more than 5 year,no discernable treatment-effect
